Key:
[1] = Pharmacokinetics in plasma and lung in mouse; assay type: in vivo, BALB/c mice; details: oral aspiration, 0.2 mg/mL, 50 uL
Protocol: Plasma and lung levels of the test compound and the ratio thereof was determined in the following manner. BALB/c mice from Charles River Laboratories were used in the assay. Test compounds were individually formulated in 20% propylene glycol in pH 4 citrate buffer at a concentration of 0.2 mg/mL and 50 uL of the dosing solution was introduced into the trachea of a mouse by oral aspiration. At various time points (typically 0.167, 2, 6, 24 hr) post dosing, blood samples were removed via cardiac puncture and intact lungs were excised from the mice. Blood samples were centrifuged (Eppendorf centrifuge, 5804R) for 4 minutes at approximately 12,000 rpm at 4° C. to collect plasma. Lungs were padded dry, weighed, and homogenized at a dilution of 1:3 in sterile water. Plasma and lung levels of test compound were determined by LC-MS analysis against analytical standards constructed into a standard curve in the test matrix. A lung to plasma ratio was determined as the ratio of the lung AUC in μg hr/g to the plasma AUC in μg hr/mL, where AUC is conventionally defined as the area under the curve of test compound concentration vs. time.

[2] = test system: IL-13 induced pSTAT6 in lung tissue; assay: Murine model of IL-13 induced pSTAT6 induction in lung tissue; assay type: in vivo, balb/c mice; details: mouse lung, 0.5 mg/mL 50 μL oral aspiration
Protocol: Il-13 is an important cytokine underlying the pathophysiology of asthma (Kudlacz et al. Eur. J. Pharmacol, 2008, 582, 154-161). IL-13 binds to cell surface receptors activating members of the Janus family of kinases (JAK) which then phosphorylate STAT6 and subsequently activates further transcription pathways. In the described model, a dose of IL-13 was delivered locally into the lungs of mice to induce the phosphorylation of STAT6 (pSTAT6) which is then measured as the endpoint.
Adult balb/c mice from Harlan were used in the assay. On the day of study, animals were lightly anesthetized with isoflurane and administered either vehicle or test compound (0.5 mg/mL, 50 μL total volume over several breaths) via oral aspiration. Animals were placed in lateral recumbency post dose and monitored for full recovery from anesthesia before being returned to their home cage. Four hours later, animals were once again briefly anesthetized and challenged with either vehicle or IL-13 (0.03 μg total dose delivered, 50 μL total volume) via oral aspiration before being monitored for recovery from anesthesia and returned to their home cage. […] using an anti-pSTAT6 ELISA (rabbit mAb capture/coating antibody; mouse mAb detection/report antibody: anti-pSTAT6-pY641; secondary antibody: anti-mouse IgG-HRP) and analyzed for total drug concentration as described above in Assay 11. […]

exposure in lung relative to exposure in plasma (lung AUC to plasma AUC ratio) [1]: about 55 times
Compound: CCc1cc(O)c(F)cc1-c1ccc2c(-c3nc4c([nH]3)CCN(C3CCN(C)CC3)C4)n[nH]c2c1 [compound 1, 5-ethyl-2-fluoro-4-(3-(5-(1-methylpiperidin-4-yl)-4,5,6,7-tetrahydro-1H-imidazo[4,5-c]pyridin-2-yl)-1H-indazol-6-yl)phenol]
inhibition of STAT6 phosphorylation [2]: about 60%

Source: patent US11786517B2, “Methods of treatment using a JAK inhibitor compound” (THERAVANCE BIOPHARMA R&D IP, LLC, priority 2017, dated 2023)
